{"source": "paper PMC11802874", "about": "“The hypolipidemic effect of MI-883, the combined CAR agonist/ PXR antagonist, in diet-induced hypercholesterolemia model” (Nature Communications, 2025)", "key": {"[1]": {"test_system": "PXB-mouse humanized liver mice (human hepatocytes)", "assay": "PXB-mouse humanized liver mice study", "format": "in vivo", "set-up": "key to BW: body weight in g; Cho / CHO in LDL / CHO in HDL / CHO in VLDL / CHO in Chylom / TG / TG in LDL / TG in HDL / TG in VLDL / TG in Chylo / rel LW: unit not given here", "description": "PXB-mouse® are mice with background genotype: cDNA-uPAwild/+/SCID [cDNA-uPAwild/+: B6;129SvEv-Plau, SCID: C.B-17/Icr-scid /scid Jcl]. Mice contain human hepatocytes with an estimated replacement index of 70% or more in the liver, which is calculated based on the blood concentration of human albumin (h-Alb). Human hepatocytes for the experiment were obtained from BD195 (Corning Incorporated, Tewksbury, MA, USA).\nMale mice (n = 5 per group) were used for the experiments with the following characteristics: 19 to 23 weeks old on Day 0, body weights on Day 0 (19.3 to 22.3 g), and blood h-Alb Level (from 9.1 to 15.0 mg/mL).\nMI-883 was applied in the following vehicle: corn oil (90%)/DMSO (5%)/PEG30 (5%) formulation of MI-883 2.5 mg/kg (1.5 mL) to treated animals. The same vehicle was used in the control group. MI-883 was applied via p.o. gavage using disposable plastic sondes (Fuchigami Kikai Co., Kyoto, Japan) at the dose of 2.5 mg/kg every day ([…] -day 0-Day 7).\nThe target volume of blood (200 μL) was collected from all subject animals under isoflurane anesthesia via the retro-orbital plexus/sinus using calibrated pipettes (Drummond Scientific Company, PA, USA) at each time point after 4 h of fasting. Isoflurane inhalation solution was also used at the terminal blood sampling. The livers were snap-frozen in two or more pieces in one tube in liquid nitrogen. These frozen liver samples were stored at −80 °C. Urine was directly collected from the urinary bladder using a syringe. Bile was directly collected from the gallbladder using a syringe.\nSerum h-ALT1 concentration was determined based on an Enzyme-Linked ImmunoSorbent Assay (ELISA) developed by the Institute of Immunology Co., Ltd (Tokyo, Japan) (for details see Supplementary, Chapter 11).\nThe clinical chemistry analyzer (BioMajestyTM Series JCA-BM6050, JEOL Ltd., Tokyo, Japan) was used to measure the blood h-Alb. LipoSEARCH to determine the serum level of total cholesterol, triglyceride, chylomicron, VLDL, LDL, and HDL was performed by SkyLight Biotech (Akita, Japan). Serum h-ALT1 concentration was determined based on an Enzyme-Linked ImmunoSorbent Assay (ELISA) developed by the Institute of Immunology Co., Ltd. (Tokyo, Japan). SpectraMax® ABS Plus Microplate Readers (Molecular Devices LLC, San Jose, CA, USA) were used for this measurement."}, "[2]": {"test_system": "Salmonella typhimurium TA 98, TA 100, TA 1535, TA 1537; Escherichia coli WP2 uvrA", "assay": "Reverse-mutation Ames test / Bacterial Reverse Mutation Test", "conditions": "with and without metabolic activation", "source_text": "The mutagenic activity of MI-883 was detected using the commercially available Muta-ChromoPlate bacterial strain kit (ebpi, Mississauga, Ontario, Canada), which is a 96-well microplate version of the reverse-mutation Salmonella typhimurium Ames test with S9 rat-liver extract. Salmonella typhimurium tester strains TA 98 (detection of frameshift mutagens) and TA 100 (detection of base-exchange mutations) were used as we described before^1.\nConsistently, Bacterial Reverse Mutation Test was performed as a service at Research Institute for Organic Syntheses Inc., (Pardubice, Czech Republic) in Salmonella typhimurium strains TA 98, TA 100, TA 1535, TA 1537, and one indicator Escherichia coli WP2 uvrA strains. The report is available after request."}, "mouse Car": {"target": "mouse Car (Mus musculus, UniProt O35627)", "sequence (O35627 whole entry)": "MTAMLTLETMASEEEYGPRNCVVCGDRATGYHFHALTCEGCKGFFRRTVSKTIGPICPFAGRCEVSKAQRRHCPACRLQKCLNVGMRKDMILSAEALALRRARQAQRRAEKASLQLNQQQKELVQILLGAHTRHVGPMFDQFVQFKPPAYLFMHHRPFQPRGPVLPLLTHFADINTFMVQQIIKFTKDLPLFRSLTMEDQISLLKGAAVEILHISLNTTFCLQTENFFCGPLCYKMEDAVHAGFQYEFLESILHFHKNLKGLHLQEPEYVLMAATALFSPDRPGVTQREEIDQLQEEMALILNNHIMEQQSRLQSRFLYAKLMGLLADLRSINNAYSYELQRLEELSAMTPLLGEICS", "assay": "Luciferase reporter gene assay mouse Car, HepG2", "excerpt": "(§1) The luciferase reporter gene assays for FXR, LXRα, LXRβ, THα, GRα, PPARα, PPARδ/β, PPARγ, AhR, VD, ERα, ERβ and mouse Car are described in our recent paper[19]\nThe mouse Car expression vector pCMV6-mCar (NM_009803) was obtained from OriGene Technologies, Rockville, MD, USA).\n(§2) Gal4-LBD constructs of tested nuclear receptors have been used together with pGL4.31[luc2P/GAL4UAS/Hygro] luciferase reporter construct and pRL-TK Renilla expression vector (both from Promega, Hercules, USA) in HepG2 cells transfected with Lipofectamine 2000 or 3000 reagents. For GRα and FXR receptors, full-length expression vectors have been used with pGRE-luc or pFXRE-luc luciferase constructs. For the aryl hydrocarbon receptor (AhR), p1A1-luc construct was used with only pRL-TK vector for transfection normalization. A dual reporter assay (Promega, Hercules, USA) was used to analyze both firefly and Renilla luciferase activities.\n(§3) Gal4-LBD constructs of tested nuclear receptors have been used together with pGL5-luc luciferase reporter construct and pRL-TK Renilla expression vector in HepG2 cells transfected with Lipofectamine 2000 or 3000 reagents. For GRα and FXR receptors, full-length expression vectors have been used with pGRE-luc or pFXRE-luc luciferase constructs. For the aryl hydrocarbon receptor (AhR), p1A1-luc construct was used with only pRL-TK vector for transfection normalization. […] Bars represent means±S.D. (n=3)."}, "[3]": {"target": "T1, mutant PXR LBD (S208W/S247W/C284W) (Homo sapiens, UniProt O75469, C284W/S208W/S247W)", "T1 construct": "expressed in transfected cells; host or cells: HepG2", "T1 sequence (O75469 whole entry S208W/S247W/C284W, the tested form may be a part)": "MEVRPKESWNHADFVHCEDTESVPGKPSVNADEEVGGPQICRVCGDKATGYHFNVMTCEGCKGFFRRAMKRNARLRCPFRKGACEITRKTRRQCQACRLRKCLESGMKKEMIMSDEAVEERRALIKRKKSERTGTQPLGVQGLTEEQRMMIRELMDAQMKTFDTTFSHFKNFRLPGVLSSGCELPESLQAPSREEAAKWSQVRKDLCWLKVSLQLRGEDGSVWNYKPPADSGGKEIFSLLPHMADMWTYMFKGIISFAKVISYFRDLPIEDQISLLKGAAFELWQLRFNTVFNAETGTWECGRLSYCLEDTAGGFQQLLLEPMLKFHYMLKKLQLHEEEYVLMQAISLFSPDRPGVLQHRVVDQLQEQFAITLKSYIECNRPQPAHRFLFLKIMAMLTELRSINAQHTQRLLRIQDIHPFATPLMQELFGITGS", "assay": "CYP3A4 reporter assay with LBP-obstructed mutant PXR in HepG2 cells", "format": "cell-based", "conditions": "HepG2, 24 h", "source_text": "The luciferase reporter plasmid was used together with the human wild-type PXR expression vector or with expression vectors with mutated PXR LBD (Fig. 1j)."}, "PXR/MED1": {"target": "T2, PXR/MED1 (Homo sapiens, UniProt O75469)", "T2 construct": "PXR-LBD (residues 108–434); expressed in transfected cells; host or cells: HepG2", "T2 sequence (O75469 108-434)": "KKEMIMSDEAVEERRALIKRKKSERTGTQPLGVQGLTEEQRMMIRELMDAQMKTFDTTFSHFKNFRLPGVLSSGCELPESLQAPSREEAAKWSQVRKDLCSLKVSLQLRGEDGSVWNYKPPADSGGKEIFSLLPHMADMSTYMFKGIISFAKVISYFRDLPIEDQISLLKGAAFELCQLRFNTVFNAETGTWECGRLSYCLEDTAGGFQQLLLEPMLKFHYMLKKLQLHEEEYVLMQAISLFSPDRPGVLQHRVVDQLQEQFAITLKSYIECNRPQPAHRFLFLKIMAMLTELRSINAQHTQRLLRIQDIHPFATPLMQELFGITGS", "assay": "Mammalian two-hybrid PXR/coactivator MED1 recruitment, HepG2", "format": "cell-based", "set-up": "key: firefly/Metridia luciferase activity ratio (normalized)", "description": "The GAL4-dependent pGL4-G5, harboring a pentamer of GAL4 binding sites in front of the E1b promoter was described before.\nTransient batch transfection of HepG2 cells was done as described above. […] All transfections included 0.01 µg pMetLuc2control per well for normalization of firefly luciferase reporter activities. After overnight incubation with the transfection mixtures, cells were treated with chemicals in a volume of 100 µl of cell culture medium. […] Firefly luciferase activity was measured in 10 µl of cell lysates, and Metridia luciferase activity was analyzed in 10 µl of medium supernatant, both as described before. Results were normalized by dividing firefly luciferase activity by Metridia luciferase activity measured from the same well. Measurements of samples were repeated several times (n ≥ 3)."}, "VD": {"target": "VD (Homo sapiens, UniProt P11473)", "sequence (P11473 127-423 limits assumed)": "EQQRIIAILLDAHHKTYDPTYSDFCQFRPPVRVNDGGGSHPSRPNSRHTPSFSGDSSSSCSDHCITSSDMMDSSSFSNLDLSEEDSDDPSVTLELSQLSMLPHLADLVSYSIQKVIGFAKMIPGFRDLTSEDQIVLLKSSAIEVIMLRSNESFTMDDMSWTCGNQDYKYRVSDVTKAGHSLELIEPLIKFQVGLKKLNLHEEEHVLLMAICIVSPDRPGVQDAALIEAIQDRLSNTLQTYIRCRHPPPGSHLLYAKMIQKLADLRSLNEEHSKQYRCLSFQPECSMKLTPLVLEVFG", "assay": "Luciferase reporter gene assay VD receptor, HepG2", "excerpt": "as §1, §2, §3"}, "[4]": {"conditions": "2.5 mg/kg per day, one week, n = 5"}, "[5]": {"conditions": "FigS15, humanized liver mice, individual animals"}, "[6]": {"conditions": "FigS15, plasma total, individual animals"}, "[7]": {"conditions": "FigS15, plasma, individual animals"}, "[8]": {"conditions": "FigS17, individual animals, relative to control"}, "[9]": {"conditions": "humanized Liver mice, human gene, relative to control, individual animals"}, "[10]": {"conditions": "humanized Liver mice, mouse gene, relative to control, individual animals"}}, "note": "Where “and” joins values, the source holds several entries; their conditions need not be identical. Equal values may be shown once. Entries after “also recorded” stand apart in the source; their conditions may differ."}
{"smiles": "NC(=O)c1cc(Cn2cc(-c3c(-c4ccc(Cl)cc4)nc4cc(F)ccn34)nn2)ccc1Cl", "note": "[MI-883, 2-chloro-5-((4-(2-(4-chlorophenyl)-7-fluoroimidazo[1,2-a]pyridin-3-yl)-1H-1,2,3-triazol-1-yl)methyl)benzamide]", "values": [{"measurement": "liver enlargement (LW/BW ratio) in PXB humanized liver mice", "setting": "[1]; 2.5 mg/kg every day, 7 days", "result": "did not observe significant liver enlargement"}, {"measurement": "proliferative biomarkers MDM2, PCNA, FOXM1 in PXB humanized liver mice", "setting": "[1]; 2.5 mg/kg every day, 7 days", "result": "no significant effects"}, {"measurement": "human albumin or human ALT (h-ALT1)", "setting": "[1]; 2.5 mg/kg per day, one week", "result": "did not observe any increase"}, {"measurement": "LDL and HDL cholesterol plasma concentrations in PXB mice", "setting": "[1]; [4]", "result": "tendency for a decrease in LDL and an increase in HDL"}, {"measurement": "total cholesterol concentration in PXB mice", "setting": "[1]; [4]", "result": "did not reach statistical significance"}, {"measurement": "BW", "setting": "[1]; [5]", "result": "21.1 and 21.2 and 18.9 and 21.4"}, {"measurement": "rel LW", "setting": "[1]; [5]", "result": "12.7 and 13.9 and 18.9 and 13.7 and 15.2"}, {"measurement": "h-ALT1", "setting": "[1]; FigS15, plasma biochemistry, individual animals", "result": "32.4 and 23.1 and 36 and 38.8 and 27.9"}, {"measurement": "Cho", "setting": "[1]; [6]", "result": "59.5 and 63.3 and 87.8 and 100.6 and 69.3"}, {"measurement": "TG", "setting": "[1]; [6]", "result": "79.5 and 114.8 and 91.5 and 67.5 and 118.2"}, {"measurement": "CHO in Chylom", "setting": "[1]; [7]", "result": "0.4 and 0.8 and 0.7 and 0.6"}, {"measurement": "CHO in HDL", "setting": "[1]; [7]", "result": "16 and 14.3 and 11.7 and 8 and 13.8"}, {"measurement": "CHO in LDL", "setting": "[1]; [7]", "result": "26.1 and 26.5 and 51.9 and 65.5 and 32.2"}, {"measurement": "CHO in VLDL", "setting": "[1]; [7]", "result": "17 and 21.7 and 23.6 and 26.5 and 22.7"}, {"measurement": "TG in Chylo", "setting": "[1]; [7]", "result": "2.6 and 5 and 3.9 and 2.5 and 3.5"}, {"measurement": "TG in HDL", "setting": "[1]; [7]", "result": "3.2 and 3.7 and 4.2 and 3.6 and 4.3"}, {"measurement": "TG in LDL", "setting": "[1]; [7]", "result": "30.8 and 34.5 and 34.1 and 36.7 and 34"}, {"measurement": "TG in VLDL", "setting": "[1]; [7]", "result": "43 and 71.6 and 49.3 and 24.6 and 76.4"}, {"measurement": "ABCC4 mRNA (RT-qPCR in humanized liver mice)", "setting": "[1]; [8]", "result": "1.98 and 1.27 and 2.64 and 0.98 and 0.66"}, {"measurement": "CYP2B6 mRNA (RT-qPCR in humanized liver mice)", "setting": "[1]; [8]", "result": "7.04 and 2.86 and 13.89 and 12.41 and 7.61"}, {"measurement": "CYP3A4 mRNA (RT-qPCR in humanized liver mice)", "setting": "[1]; [8]", "result": "0.35 and 0.63 and 1.62 and 10.03 and 6.65"}, {"measurement": "HMGCR1 mRNA (RT-qPCR in humanized liver mice)", "setting": "[1]; [8]", "result": "0.23 and 0.46 and 0.39 and 0.62 and 1.11"}, {"measurement": "HMGCS2 mRNA (RT-qPCR in humanized liver mice)", "setting": "[1]; [8]", "result": "3.19 and 1.63 and 2.91 and 2.97 and 2.16"}, {"measurement": "LDLR mRNA (RT-qPCR in humanized liver mice)", "setting": "[1]; [8]", "result": "1.63 and 0.66 and 1.69 and 2.23 and 2.34"}, {"measurement": "SREBF1 mRNA (RT-qPCR in humanized liver mice)", "setting": "[1]; [8]", "result": "0.27 and 0.47 and 0.58 and 0.76 and 1.32"}, {"measurement": "UGT1A1 mRNA (RT-qPCR in humanized liver mice)", "setting": "[1]; [8]", "result": "3.46 and 1.67 and 5.52 and 2.7 and 2.14"}, {"measurement": "CYP2B6 mRNA in PXB humanized mice", "setting": "[1]; Supplementary Fig. 17", "result": "upregulation"}, {"measurement": "CYP3A4 mRNA in PXB humanized mice", "setting": "[1]; Supplementary Fig. 17", "result": "have not significantly changed; also recorded: not statistically significant induction"}, {"measurement": "Foxm1 RT-qPCR (Fig. 7d)", "setting": "[1]; [9]", "result": "1.35 and 2.21 and 1.02 and 0.71 and 2.23"}, {"measurement": "MKI67 RT-qPCR (Fig. 7d)", "setting": "[1]; [9]", "result": "0.96 and 0.82 and 1.24 and 0.52 and 0.59"}, {"measurement": "Foxm1 RT-qPCR (Fig. 7d)", "setting": "[1]; [10]", "result": "0.92 and 1.07 and 0.75 and 0.53 and 0.33"}, {"measurement": "Mki67 RT-qPCR (Fig. 7d)", "setting": "[1]; [10]", "result": "1.24 and 0.62 and 1.46 and 0.36 and 0.17"}, {"measurement": "genotoxicity / mutagenicity", "setting": "[2]", "result": "not genotoxic; also recorded: nonmutagenic"}, {"measurement": "NRs assays: mCar (relative to ctrl, replicates)", "setting": "mouse Car", "result": "1.15 and 1.36 and 1.11"}, {"measurement": "inhibition of constitutive activity of LBP-obstructed mutant PXR", "setting": "[3]", "result": "failure of MI-883 to inhibit"}, {"measurement": "PXR/DRIP2025 (MED1) two-hybrid activity, replicates", "setting": "PXR/MED1; MI-883 30 μM", "result": "0.42 and 0.46 and 0.18 and 0.3 and 0.2"}, {"measurement": "PXR/DRIP2025 (MED1) two-hybrid activity, replicates", "setting": "PXR/MED1; single agent: RIF (10 µM), MI-883 10 μM", "result": "0.33 and 0.2 and 0.19 and 0.27 and 0.23"}, {"measurement": "NRs assays: VDR (relative to ctrl, replicates)", "setting": "VD", "result": "0.7 and 0.81 and 0.9"}]}
